Results as given in patent US20140004209A1, “AUTOPHAGY INDUCER AND INHIBITOR COMBINATION THERAPY FOR THE TREATMENT OF NEOPLASMS” (GENENTECH, INC., priority 2010, published 2014).
“Also recorded” adds a separate entry of the source.

Columns and labels:
[1] = tested on: PC3 cells; assay: Microarray analysis of autophagy gene expression in PC3 cells; format: cell-based, human; conditions: 1 or 5 μM for 6 or 24 hours, normalized to DMSO
Description: PC3 cells were induced to express shRNA to indicated Akt isoforms for 72 hours by Doxycycline, RNA was extracted from both Dox treated (Dox+) or untreated control (Dox−) cells. Microarray analysis was carried out using Affymetrix chips. Ratios of the expression levels of each autophagy gene from Dox+ and Dox− samples are shown. Data are mean values from 3 independent experiments.
RNA was extracted from the cells. Microarray analysis was carried out using Affymetrix chips. Expression levels of each autophagy gene are normalized to the DMSO controls. Data are mean values from 3 independent experiments.

[2] = tested on: PC3 cells; assay: Autophagy markers in PC3 cells (EM AVs, GFP-LC3, LC3-II/LC3-I, MDC, AO); format: cell-based, human; conditions: 5 mM NAC
Description: Western blot analysis, immunofluorescence, 1HC and TUNEL assay: For Western blot analysis, total protein lysates were subjected to SDS-PAGE and transferred to nitrocellulose. […] Detection and quantification were performed using an Odyssey infrared scanner (LICOR) using the manufacturer's software. For immunofluorescence staining, cells were fixed in 3% paraformaldehyde and permeabilized with 0.01% digitonin in PBS, followed by a rabbit polyclonal anti-LC3 (Abgent) primary antibody detected with a cy3-conjugated anti-rabbit secondary antibody (Jackson Immunoresearch). For IHC, formalin-fixed, paraffin-embedded specimens were collected. 5-μm-thick paraffin-embedded sections were stained using an anti-Ki-67 (MIB-1, DakoCytomation) antibody with the Dako ARK kit (Dako Corporation). Tissues were counterstained with haematoxylin, dehydrated, and mounted. In all cases, antigen retrieval was performed with the Dako Target Retrieval Kit as per manufacturer's instructions. For TUNEL assay, formalin-fixed, paraffin-embedded sections were stained using an in situ cell death detection kit (POD; Roche Diagnostic) according to the manufacturer's instructions.
Ultrathin sections were stained with uranyl acetate and lead citrate. Numbers of AV were counted on systematically sampled cytoplasmic areas of 4.5 μm^2 (n≧64 per condition). The percent AV area was measured by means of a square mesh grid laid over ≧5 sets of systematically sampled micrographs with each set covering a cytoplasmic area ≧80 μm^2. The average percent of apoptotic nuclei in tumor tissues was calculated from the number of apoptotic nuclei in 3 to 4 sets of 100 systematically counted tumor cell nuclei.
Multispectral imaging flow cytometry: Cells treated with various agents were stained with Acridine Orange and analyzed by the ImageStream system (Amnis Corporation, Seattle, Wash.) using the IDEAS image analysis program. The DNA AOGreen image and the vacuolar AO Red image were first compensated into separate channels, and then the percentage of apoptotic/anucleate cells (based on AO nuclear morphology and intensity) and vacuolated cells (AO Red+) were quantified. […] AORed Intensity is plotted on the second histogram with an arbitrary gate (R5) drawn to include events with the brightest AO Red intensity.

[3] = tested on: PC3 cells; assay: PC3 cell viability and cell death (PI exclusion, annexin V, caspase-3/7); format: cell-based, human
Description: Cell viability and cell cycle analysis. Cell number and viability was measured using trypan blue exclusion assay using a Vi-Cell Analyzer (Beckman Coulter), or labeled with 1 μg/ml PI in PBS/1% BSA followed by cytofluorometric analysis with a fluorescence-activated cell sorter (FACS) (Becton Dickinson). FITC-conjugated Annexin V was used for the assessment of phosphatidylserine exposure by FACS analysis. Caspase activation was analyzed using a Caspase-Glo 3/7 Assay kit (Promega). For cell cycle analysis, cells were fixed with drop-wise addition of chilled 70% ethanol, washed with PBS and resuspended in staining solution containing 50 μg/ml PI and 60 units of RNAse A. DNA content was analyzed by flow cytometry using the FlowJo and ModFit software (Becton Dickinson).

[4] = tested on: Akt; assay: Immunoblot of Akt and S6 phosphorylation in PC3 cells; format: cell-based, human; conditions: 5 mM NAC
From the text: Western blot analysis, immunofluorescence, 1HC and TUNEL assay: For Western blot analysis, total protein lysates were subjected to SDS-PAGE and transferred to nitrocellulose. Antibodies used were: anti-Akt1, anti-Akt2, anti-Akt3, anti-total-Akt, anti-p-Akt (Ser473), anti-p-Akt (Thr308), anti-p-S6 (Ser235/236), anti-PARP and anti-cleaved caspase-3 (Cell Signaling Technology); anti-p-PRAS40 (Invitrogen); anti-p27^Kip1 (Santa Cruz Biotechnology); anti-LC3 (Novus); anti-LAMP2 and anti-Cathepsin D (BD Biosciences); and anti-GAPDH (Advanced Immunochemical Inc.). Primary antibodies were detected using IR Dye 800-conjugated (Rockland) and Alexa-Fluoro 680-conjugated (Molecular Probes) species-selective secondary antibodies. Detection and quantification were performed using an Odyssey infrared scanner (LICOR) using the manufacturer's software. For immunofluorescence staining, cells were fixed in 3% paraformaldehyde and permeabilized with 0.01% digitonin in PBS, followed by a rabbit polyclonal anti-LC3 (Abgent) primary antibody detected with a cy3-conjugated anti-rabbit secondary antibody (Jackson Immunoresearch). For IHC, formalin-fixed, paraffin-embedded specimens were collected. 5-μm-thick paraffin-embedded sections were stained using an anti-Ki-67 (MIB-1, DakoCytomation) antibody with the Dako ARK kit (Dako Corporation). Tissues were counterstained with haematoxylin, dehydrated, and mounted. In all cases, antigen retrieval was performed with the Dako Target Retrieval Kit as per manufacturer's instructions. For TUNEL assay, formalin-fixed, paraffin-embedded sections were stained using an in situ cell death detection kit (POD; Roche Diagnostic) according to the manufacturer's instructions.

[5] = tested on: PC3 cells; assay: Mitochondrial superoxide (MitoSOX red) and cellular ROS in PC3 cells; format: cell-based, human; conditions: 5 mM NAC
Description: (B) PC3 cells treated as in A were stained with the Image-iT LIVE green ROS Detection kit and examined by fluorescence microscopy at 24 h. […] (C) Quantification of MitoSOX red and ROS green fluorescence intensities by flow cytometry at 24 h. Cells were treated as in A and B. Error bars represent SEM (n=3).
Because mitochondria are the primary intracellular source of superoxide (O2^−) generation, we analyzed O2^− production using MitoSOX red, an O2^− indicator that accumulates in the mitochondria as a function of membrane potential and fluoresces upon oxidation and subsequent binding to DNA.

[6] = Autophagic vacuole accumulation by side scatter (SSC) in a flow cytometer; format: cell-based
From the text: Inhibitors include 3-phenyl-2-(4-((4-(5-(pyridin-2-yl)-1H-1,2,4-triazol-3-yl)piperidin-1-yl)methyl)phenyl)-1,6-naphthyridin-5(6H)-one (II-3), benzyl 2-(4-(3-ethylureido)phenyl)-4-(1,4-oxazepan-4-yl)-5H-pyrrolo[3,4-d]pyrimidine-6(7H)-carboxylate (III-1); 1-ethyl-3-(4-(4-morpholino-7-(pyrimidin-2-yl)-5,6,7,8-tetrahydropyrido[3,4-d]pyrimidin-2-yl)phenyl)urea (III-2), (R)-1-(44(2-(2-aminopyrimidin-5-yl)-7-methyl-4-morpholinothieno[3,2-d]pyrimidin-6-yl)methyl)piperazin-1-yl)-2-hydroxypropan-1-one (III-3), 4-(2-(1H-indazol-4-yl)-6-((4-(methylsulfonyl)piperazin-1-yl)methyl)thieno[3,2-d]pyrimidin-4-yl)morpholine (III-6), (S)—N-(4-(benzo[d][1,3]dioxol-5-yl)thiazol-2-yl)-N-(3-(2-formylpiperidin-1-yl)propyl)thiophene-2-carboxamide (IV-2) and Rapamycin.
FIG. 14 depicts CQ (10 μM) increases the number and size of autophagic vacuoles when combined with the various mTOR, PI3K, and Akt inhibitors.

In the case of `Cc1nc(-c2ccc(CN3CCC(n4c(=O)[nH]c5ccccc54)CC3)cc2)c(-c2ccccc2)nc1O` [II-1, 1-(1-(4-(5-hydroxy-6-methyl-3-phenylpyrazin-2-yl)benzyl)piperidin-4-yl)-1H-benzo[d]imidazol-2(3H)-one], the autophagy gene expression [1] is reported as “induce autophagy gene expression”.
For `NC(=O)[C@@H]1CCCCN1CCCN(C(=O)c1cccs1)c1nc(-c2cc(-c3ccccc3)no2)cs1` [IV-1, (S)-1-(3-(N-(4-(3-phenylisoxazol-5-yl)thiazol-2-yl)thiophene-2-carboxamido)propyl)piperidine-2-carboxamide], the autophagy gene expression [1] was “induce autophagy gene expression”.
In the case of `CC(=O)N[C@@H](CS)C(=O)O` [NAC, N-acetylcysteine], the “effect of NAC on Akti-induced autophagy markers” value [2] is reported as “counteracted all these effects induced by Akti with or without CQ; also recorded: reduced Akti-induced LC3 and GFP-LC3 lipidation, p62 degradation, and GFP-LC3 puncta formation”, the “rescue of cell death induced by II-4 (Akti) and CQ” value [3] is reported as “NAC rescued cell death induced by Akti+CQ; also recorded: rescued cell viability in the presence of II-4 and CQ” and the “effect of NAC on Akti's inhibition of pAkt or pS6” value [4] is reported as “did not affect Akti's ability to inhibit pAkt or pS6”. The “effect of NAC on MitoSOX Red signal” value [5] was “reduced MitoSOX Red signal induced by the various treatments”.
For `CO[C@H]1C[C@@H]2CC[C@@H](C)[C@@](O)(O2)C(=O)C(=O)N2CCCC[C@H]2C(=O)O[C@H]([C@H](C)C[C@@H]2CC[C@@H](O)[C@H](OC)C2)CC(=O)[C@H](C)/C=C(\C)[C@@H](O)[C@@H](OC)C(=O)[C@H](C)C[C@H](C)/C=C/C=C/C=C/1C` [Rapamycin, rapamycin], the “autophagic vacuole accumulation (SSC), inhibitor alone” value [6] was “induce increased autophagic vacuole accumulation”.
